Measurements: ChEMBL document CHEMBL1139737, “Distachyasin: A new antioxidant metabolite from the leaves of Carex distachya” (Bioorg Med Chem Lett, 2006)

How the values were obtained:
Format in all cases: functional
[1] = Inhibition of TBARS formation
[2] = Hydrogen peroxide radical scavenging activity at 0.2 mg/ml
[3] = Superoxide radical scavenging activity at 0.5 mg/ml
[4] = Nitric oxide radical scavenging activity
[5] = Hydrogen peroxide radical scavenging activity at 0.1 mg/ml
[6] = Nitric oxide radical scavenging activity assessed as reduction in nitrite concentration at 0.5 mg/ml; parameters: scale not given: the % may be the effect or the level left
[7] = Inhibition of TBARS formation at 0.5 mg/ml

With COC1=CC(=O)[C@@]2(O)C[C@H]3[C@H](c4ccccc4C3(C)C)[C@@H](O)C2=C1 the Activity [1] was “Dose-dependent effect”, the Activity [2] was 39% and the Activity [3] was 60%. The Activity [4] was “Dose-dependent effect”, the Activity [5] was 32% and the Activity [6] was 10.7%. For the same compound, the inhibition [7] was 59%.
